Reference: patent publication US6107275A, “Cyclic Antiplatelet peptides with pseudo-bond” (Merrell Pharmaceuticals Inc., priority 1997, dated 2000)

Key:
[1] = molecular target: T1, Purified GPIIbIIIa (Homo sapiens, UniProt P05106+P08514); assay: GPIIbIIIa (fibrinogen) enzyme-linked immunoassay (ELISA); details: purified human platelet GPIIbIIIa binding to immobilized fibrinogen; read-out: GPIIbIIIa (Fibrogen ELISA IC50)
T1 construct: GPIIbIIIa was purified from human platelets; from tissue; host or cells: human platelets
Method: GPIIbIIIa Enzyme-Linked Immunoassay
Low solubility fibrinogen, prepared as described by Lipinska et al., J. Lab. Clin. Med., 84, 509-516 (1974) (human, KABI) was immobolized at 5 μg/well on Immunolon 2-96 well plates (inculated overnight at 4° to bind to the wells). The wells were blocked with 0.5% bovine serum albumin in buffer A ([…] Tris-HCl, pH 7.5, 2 mM CaCl2, 120 mM […], and 0.02% NaN3) for two hours at room temperature. All subsequent steps were carried out at room temperature. The wells were washed three times with buffer A plus 0.5% Tween 20 (BioRad). Purified GPIIbIIIa (2 μg/well) plus synthetic peptides supplements at the indicated concentrations were conincubated for 90 to 120 min with immobilized fibrinogen. The wells were washed as above, then the anti-GPIIbIIIa monoclonal antibody, CD41a, was added to each well and incubated for 60 min. After another three washes, goat anti-mouse horseradish peroxidase conjugate was added to each well (60 min). The wells were washed three times with buffer A plus detergent, followed by two washes with buffer A minus detergent. The peroxidase substrate, 3,3',5,5'-tetramethylbenzidine (Kirkegaard and Perry Laboratories, Inc.) was added to the wells for color development. The reaction was stopped with 0.3N H2 SO4, and absorbances were measured at 450 mn using a microplate reader (Multiscan II, Flow-Titertek).
GPIIbIIIa was purified from human platelets as described by Fitzgerald, et al., Anal. Biochem., 151, 169-177 (1985), except that the final gel purification step was performed with an HW55 size exclusion column (Waters, Advanced Protein Purification System), instead of Sephacryl S-300. The protein, greater than 90% pure as assessed by SDS polyacrylamide gel electrophoresis, was stored at -80° C. in small aliquots.

[2] = molecular target: Human platelet rich plasma (PRP) (Homo sapiens, UniProt P05106+P08514); details: read-out: Platelet Aggregation ADP Induced IC50, ADP (1 μM)
Method: Platelet Aggregation In Vitro
Human platelet rich plasma (PRP) was prepared by centrifugation at 200×g for 10 min. at room temperature. Platelet poor plasma (PPP) was prepared by centrifugation at 2000×g for 10 min. PRP was exposed only to plastic laboratory ware. All experiments were completed within 3 hr of blood collection. Platelet aggregation was measured photometrically using a Chrono-log dual channel aggregometer (Chrono-log Corp., Haverstown, Pa. 19083). One hundred percent light transmission was defined with autologus PPP. Percent maximal change in light transmission was determined from PRP following addition of ADP (1 μM) or thrombin. […] MDL 102,530 was incubated with PRP (0.45 ml) for 30 sec prior to the addition of ADP or thrombin. Aggregation was measured in a total volume of 0.5 ml. Inhibitory responses were expressed s percent inhibition when compared to a control value. The concentration resulting in 50% inhibition of aggregation (IC50) was calculated by simple linear regression.

[3] = molecular target: human platelets (Homo sapiens, UniProt P05106+P08514); assay: 125I-Fibrinogen binding to platelets; details: 0.1 μM 125I-fibrinogen, thrombin or activator peptide stimulus
Method: Preparation of Human Platelets
Human blood was collected by venipuncture in tubes containing one-tenth volume of acid-citrate-dextrose as an anticoagulant. Platelet-rich plasma was prepared by centrifugation of the blood for 10 min at 500 g at room temperature. The platelet-rich plasma was decanted and one-tenth volume of acid-citrate-dextrose was added followed by centrifugation at 1000 g at room temperature for 10 min to sediment the platelets. The platelets were suspended in two ml modified Tyrode's buffer (2 M NaCl, 0.5 M dextrose, 0.2 M NaHCO3, 0.1 M KCl, 0.1 M MgCl2, 0.1 M NaH2 PO4 and 0.1 M HEPES, pH 7.3) containing 0.35% bovine serum albumin and then filtered on a 50 ml column of Sepharose 2B (Pharmacia) equilibrated with Tyrode's buffer. Finally, the platelets were counted in an automated hematology analyzer.
Human low solubility fibrinogen (Kabi) was prepared as described previously (Lipinska et al., 1974). For ^125 I labeling, fibrinogen (1 mg) was incubated with three Iodo-Beads (Pierce Chemical Co.) and 1 mCi of Na^125 I for 15 min after with ^125 I-fibrinogen was separated from free radioactivity by filtration through a PD-10 column (Pharmacia). The specific activity was approximately 1-5×10^17 CPM/mol fibrinogen.
Binding of fibrinogen to human platelets was performed as described by Plow and Ginsberg (1981). Binding assays contained, in a volume of 0.2 ml, 1-2×10^7 platelets, 0.1 μM ^125 I-fibrinogen, 2 mM CaCl2 and 0.1 U/ml thrombin or various concentrations of activator peptides as a stimulus. Incubations were carried out in 1.2 ml Eppendorf microcentrifuge tubes at room temperature for 30 min and then duplicate 75 μl aliquots were layered onto 0.4 ml of 20% sucrose in Tyrode's buffer containing 1% bovine serum albumin and platelets were sedimented by centrifugation at 10,000 g for 5 min in a Beckman microcentrifuge. Tips of the centrifuge tubes were amputated and bound ^125 I-fibrinogen was measured in a gamma counter (LKB/Pharmacia). Nonspecifically bound radioactivity was determined in incubations in which activators were excluded and these values were 1-5% of those obtained with thrombin activation.

T1 sequence (P08514 32-887 limits assumed): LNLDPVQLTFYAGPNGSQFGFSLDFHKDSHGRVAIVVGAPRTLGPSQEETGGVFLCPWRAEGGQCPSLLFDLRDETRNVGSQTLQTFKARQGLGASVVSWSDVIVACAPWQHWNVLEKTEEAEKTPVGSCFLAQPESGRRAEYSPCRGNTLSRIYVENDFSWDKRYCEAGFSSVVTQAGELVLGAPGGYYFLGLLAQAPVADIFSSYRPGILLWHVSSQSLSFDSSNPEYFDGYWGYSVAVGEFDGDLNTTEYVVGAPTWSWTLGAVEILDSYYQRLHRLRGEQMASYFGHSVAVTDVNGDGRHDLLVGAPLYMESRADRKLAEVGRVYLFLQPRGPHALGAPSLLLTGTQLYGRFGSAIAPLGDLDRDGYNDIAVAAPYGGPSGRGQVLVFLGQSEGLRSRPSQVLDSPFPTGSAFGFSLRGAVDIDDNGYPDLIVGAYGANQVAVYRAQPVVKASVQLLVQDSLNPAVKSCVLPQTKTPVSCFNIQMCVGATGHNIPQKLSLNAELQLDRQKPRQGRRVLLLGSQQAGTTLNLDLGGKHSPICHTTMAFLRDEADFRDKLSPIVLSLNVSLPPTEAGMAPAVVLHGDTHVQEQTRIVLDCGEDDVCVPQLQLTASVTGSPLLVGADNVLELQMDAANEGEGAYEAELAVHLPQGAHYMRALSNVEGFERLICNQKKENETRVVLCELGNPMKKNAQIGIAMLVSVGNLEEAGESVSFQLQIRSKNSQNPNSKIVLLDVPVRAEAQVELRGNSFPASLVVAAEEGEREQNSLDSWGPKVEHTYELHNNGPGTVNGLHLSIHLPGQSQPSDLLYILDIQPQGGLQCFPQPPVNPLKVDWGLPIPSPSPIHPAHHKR
T1 sequence (P08514 891-1039 partner limits assumed): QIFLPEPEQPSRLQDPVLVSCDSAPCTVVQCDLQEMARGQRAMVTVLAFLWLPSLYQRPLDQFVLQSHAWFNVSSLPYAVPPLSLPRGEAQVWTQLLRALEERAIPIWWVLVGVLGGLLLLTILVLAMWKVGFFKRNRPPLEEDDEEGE
T1 sequence (P05106 27-788): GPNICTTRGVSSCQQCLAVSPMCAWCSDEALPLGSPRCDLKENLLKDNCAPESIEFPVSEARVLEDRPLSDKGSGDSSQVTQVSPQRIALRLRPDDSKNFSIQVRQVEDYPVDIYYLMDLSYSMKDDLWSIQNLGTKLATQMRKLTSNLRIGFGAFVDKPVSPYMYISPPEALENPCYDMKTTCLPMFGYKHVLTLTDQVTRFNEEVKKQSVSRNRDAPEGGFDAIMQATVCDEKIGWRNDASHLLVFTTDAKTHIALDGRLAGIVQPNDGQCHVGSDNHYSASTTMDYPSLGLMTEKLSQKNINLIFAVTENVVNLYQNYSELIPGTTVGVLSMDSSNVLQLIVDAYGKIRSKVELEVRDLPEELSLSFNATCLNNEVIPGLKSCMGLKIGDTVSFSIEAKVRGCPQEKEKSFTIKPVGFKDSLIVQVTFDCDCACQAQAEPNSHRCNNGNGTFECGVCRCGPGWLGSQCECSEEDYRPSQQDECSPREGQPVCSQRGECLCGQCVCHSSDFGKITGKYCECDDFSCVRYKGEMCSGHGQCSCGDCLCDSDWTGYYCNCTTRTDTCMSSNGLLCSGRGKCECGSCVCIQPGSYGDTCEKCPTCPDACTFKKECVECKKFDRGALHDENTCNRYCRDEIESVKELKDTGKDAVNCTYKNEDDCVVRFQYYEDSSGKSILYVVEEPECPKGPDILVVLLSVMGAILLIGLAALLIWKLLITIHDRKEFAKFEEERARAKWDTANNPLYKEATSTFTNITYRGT
Sequence of human platelets (P08514 32-1039): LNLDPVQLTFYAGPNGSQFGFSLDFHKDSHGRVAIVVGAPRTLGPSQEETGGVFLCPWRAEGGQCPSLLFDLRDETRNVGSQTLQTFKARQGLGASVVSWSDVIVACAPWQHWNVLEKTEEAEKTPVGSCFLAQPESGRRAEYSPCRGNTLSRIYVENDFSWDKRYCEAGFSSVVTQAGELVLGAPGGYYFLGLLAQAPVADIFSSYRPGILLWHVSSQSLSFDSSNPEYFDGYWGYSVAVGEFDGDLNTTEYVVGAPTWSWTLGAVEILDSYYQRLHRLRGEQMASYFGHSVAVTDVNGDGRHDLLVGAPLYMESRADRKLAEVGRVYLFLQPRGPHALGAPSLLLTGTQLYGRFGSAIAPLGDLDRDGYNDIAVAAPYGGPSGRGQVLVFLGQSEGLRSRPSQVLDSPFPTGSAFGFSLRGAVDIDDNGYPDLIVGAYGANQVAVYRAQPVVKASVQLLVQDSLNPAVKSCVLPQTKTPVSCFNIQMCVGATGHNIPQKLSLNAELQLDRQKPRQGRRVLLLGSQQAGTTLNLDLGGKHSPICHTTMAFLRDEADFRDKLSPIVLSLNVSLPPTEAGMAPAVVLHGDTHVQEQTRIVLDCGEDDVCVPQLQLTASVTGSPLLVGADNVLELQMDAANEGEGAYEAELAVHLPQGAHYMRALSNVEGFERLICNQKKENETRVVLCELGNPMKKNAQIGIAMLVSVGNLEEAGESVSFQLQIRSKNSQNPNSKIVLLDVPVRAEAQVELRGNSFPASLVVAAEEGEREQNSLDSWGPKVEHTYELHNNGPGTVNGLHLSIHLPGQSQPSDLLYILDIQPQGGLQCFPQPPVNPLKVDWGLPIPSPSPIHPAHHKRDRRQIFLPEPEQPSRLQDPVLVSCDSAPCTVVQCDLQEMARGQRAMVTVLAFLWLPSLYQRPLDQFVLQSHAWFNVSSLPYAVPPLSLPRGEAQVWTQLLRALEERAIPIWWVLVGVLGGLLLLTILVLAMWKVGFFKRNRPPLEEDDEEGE
Sequence of human platelets (P05106 27-788): as the sequence (P05106 27-788) above
Sequence of Human platelet rich plasma (PRP) (P08514 32-1039): as the sequence (P08514 32-1039) above
Sequence of Human platelet rich plasma (PRP) (P05106 27-788): as the sequence (P05106 27-788) above

SMILES	IC50 [1] [nM]	IC50 [2] [nM]	IC50 [3] [nM]
C[C@H]1CN(C(=O)CCN)[C@@H](CCCNC(=N)N)C(=O)NCC(=O)N[C@@H](CC(=O)O)C(=O)N[C@H](C(=O)NCc2ccccc2)CCC(=O)N1 [III]	3000	49200	2400
C[C@H]1CN(CCCC(=O)O)[C@@H](CCCNC(=N)N)C(=O)NCC(=O)N[C@@H](CC(=O)O)C(=O)N[C@H](C(=O)NCc2ccccc2)CCC(=O)N1 [II]	540	–	1200
C[C@H]1CN(CCCc2ccccc2)[C@@H](CCCNC(=N)N)C(=O)NCC(=O)N[C@@H](CC(=O)O)C(=O)N[C@H](C(=O)NCc2ccccc2)CCC(=O)N1 [IV]	300	6400	270
C[C@H]1CN[C@@H](CCCNC(=N)N)C(=O)NCC(=O)N[C@@H](CC(=O)O)C(=O)N[C@H](C(=O)NCc2ccccc2)CCC(=O)N1 [I]	200	–	2400
